In patent US20230148599A1, “FUNGICIDAL MIXTURES CONTAINING PYRAZOLE DERIVATIVES” (FMC Corporation, priority 2020, published 2023):

Columns and labels:
Type in all cases: in vivo
Settings in all cases: 50 ppm, 100 = 100% disease control, 0 = no control
[1] = system: Blumeria graminis f. sp. tritici; experiment: Test C: wheat powdery mildew, preventive spray on wheat seedlings
In short: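 Seedlings were sprayed to run-off with compound suspended (ppm) in 50/50 acetone–water containing 250 ppm PEG400, then spore-dust inoculated the following day. After 8 days at 20° C, disease control was rated visually from 0 to 100 against controls.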

Alternaria solani = experiment: Test F: tomato early blight, preventive spray on tomato seedlings
In short: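 Tomato seedlings were sprayed to run-off with compound suspended in acetone/water (50/50) with 250 ppm PEG400 and inoculated with Alternaria solani spores the next day. Plants were held 48 h at 27 °C in saturated humidity, then 3 days at 20 °C. Disease control was rated visually from 0 to 100 against untreated controls.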

[2] = system: Puccinia recondita f. sp. tritici; experiment: Test B: wheat leaf rust, preventive spray on wheat seedlings
In short: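 Wheat seedlings were sprayed to run-off with compound suspended at ppm concentrations in acetone/water containing 250 ppm PEG400. The next day they were inoculated with Puccinia recondita f. sp. tritici spores, held saturated at 20 °C for 24 h, then kept 7 days at 20 °C. Disease control was rated 0–100% relative to untreated controls.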

Botrytis cinerea = experiment: Test E: tomato Botrytis, preventive spray on tomato seedlings
In short: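 Compound suspended in 50/50 acetone/water with 250 ppm PEG400 surfactant and sprayed to run-off on tomato seedlings; Botrytis cinerea spores applied the next day. Incubation 48 h at 20° C in saturated atmosphere, then 3 days at 24° C. Visual rating 0–100% disease control relative to controls.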

Phakopsora pachyrhizi = experiment: Test D: Asian soybean rust, preventive spray on soybean seedlings
In short: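 Compounds in acetone/water (50/50) with 250 ppm PEG400, dosed in ppm, sprayed to run-off on soybean seedlings; inoculated with P. pachyrhizi spores next day. Held 24 h at 22 °C in saturated air, then 8 days at 22 °C; visual rating of disease control, 0–100, relative to untreated controls.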

Septoria tritici = experiment: Test A: wheat leaf blotch, preventive spray on wheat seedlings
In short: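 Wheat seedlings sprayed to run-off with compound suspended in acetone/water with 250 ppm PEG400 surfactant, inoculated next day with Septoria tritici spores. Held 48 h saturated at 24 °C, then 17 days at 20 °C; disease rated 0–100% control relative to controls.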

Compound | Test C disease control rating [1] [%] | Test F disease control rating (Alternaria solani) [%] | Test B disease control rating [2] [%] | Test E disease control rating (Botrytis cinerea) [%] | Test D disease control rating (Phakopsora pachyrhizi) [%] | Test A disease control rating (Septoria tritici) [%]
CCc1nn(C)c(Nc2c(F)cc(F)cc2[N+](=O)[O-])c1-c1ccc(F)cc1Cl [compound 95] | 100 | 99 | 100 | 99 | 84 | 100
COc1ccc(Nc2c(-c3ccc(C#N)cc3Cl)c(C)nn2C)c([N+](=O)[O-])c1 [compound 124] | 99 | 99 | 100 | 100 | 25 | 100
Cc1nn(C)c(Nc2c(F)cc(Br)cc2[N+](=O)[O-])c1-c1ccc(F)cc1F [compound 56] | 100 | 99 | 100 | 99 | 65 | 100
CCc1nn(C)c(Nc2c(Cl)cccc2[N+](=O)[O-])c1-c1ccc(F)cc1F [compound 17] | 94 | 9 | 92 | 99 | 0 | 100
Cc1cccc([N+](=O)[O-])c1Nc1c(-c2c(F)cc(F)cc2Cl)c(C)nn1C [compound 153] | 99 | 72 | 100 | 99 | 73 | 99
Cc1cc(Cl)c(Nc2c(-c3ccc(C#N)cc3Cl)c(C)nn2C)c([N+](=O)[O-])c1 [compound 156] | 66 | 0 | 91 | 0 | 0 | 91
Cc1nn(C)c(Nc2cccc(Cl)c2[N+](=O)[O-])c1-c1c(F)cccc1F [compound 99] | 0 | 0 | 0 | 24 | 0 | 99
Cc1nn(C)c(Nc2c(F)cc(F)cc2[N+](=O)[O-])c1-c1ccc(Cl)cc1Cl [compound 9] | 97 | 99 | 100 | 97 | 0 | 100
COc1cc(F)c(Nc2c(-c3ccc(Cl)cc3Cl)c(C)nn2C)c([N+](=O)[O-])c1 [compound 138] | 93 | 100 | 100 | 99 | 67 | 100
COc1ccc(Nc2c(-c3ccc(F)cc3Cl)c(C)nn2C)c([N+](=O)[O-])c1 [compound 119] | 99 | 99 | 100 | 100 | 92 | 100
COc1ccc(-c2c(C)nn(C)c2Nc2c(Cl)cc(Cl)cc2[N+](=O)[O-])c(Cl)c1 [compound 65] | 56 | 46 | 89 | 16 | 66 | 94
Cc1nn(C)c(Nc2c(Cl)cc(F)cc2[N+](=O)[O-])c1-c1ccc(Cl)cc1Cl [compound 10] | 48 | 9 | 99 | 68 | 0 | 100
Cc1nn(C)c(Nc2ccccc2[N+](=O)[O-])c1-c1c(F)cccc1F [compound 135] | 93 | 0 | 68 | 99 | 0 | 100
Cc1nn(C)c(Nc2ccccc2[N+](=O)[O-])c1-c1ccc(F)cc1Br [compound 139] | 76 | 33 | 86 | 100 | 0 | 98
CCn1nc(C)c(-c2ccc(F)cc2Cl)c1Nc1c(F)cccc1[N+](=O)[O-] [compound 71] | 99 | 98 | 100 | 99 | 82 | 100
Cc1nn(C)c(Nc2c(F)cc(Cl)cc2[N+](=O)[O-])c1-c1ccc(F)cc1Br [compound 131] | 99 | 100 | 100 | 99 | 80 | 100
Cc1nn(C)c(Nc2c(F)cc(F)cc2[N+](=O)[O-])c1-c1ccc(C#N)cc1Cl [compound 120] | 89 | 99 | 100 | 100 | 44 | 100
COc1ccc(Nc2c(-c3c(F)cc(F)cc3Br)c(C)nn2C)c([N+](=O)[O-])c1 [compound 164] | 98 | 99 | 100 | 100 | 0 | 100
COc1ccc(Nc2c(-c3c(F)cc(F)cc3F)c(C)nn2C)c([N+](=O)[O-])c1 [compound 159] | 100 | 99 | 100 | 99 | 13 | 100
Cc1nn(C)c(Nc2c(F)cccc2[N+](=O)[O-])c1-c1c(F)cc(F)cc1F [compound 62] | 100 | 99 | 100 | 99 | 100 | 100
Cc1nn(C)c(Nc2ccccc2[N+](=O)[O-])c1-c1c(F)cc(F)cc1Cl [compound 148] | 98 | 100 | 99 | 99 | 13 | 100
Cc1nn(C)c(Nc2c([N+](=O)[O-])ccc(F)c2F)c1-c1ccc(F)cc1Cl [compound 7] | 94 | 89 | 99 | 99 | 96 | 100
